Data on five compounds can be found in US20120252896A1, “METHODS AND COMPOSITIONS FOR MODULATION OF T-CELLS VIA THE KYNURENINE PATHWAY” (priority 2009, published 2012).

Assay [1] relates to Th17 cells (CD4+ T cells under Th17 differentiating conditions; IL-17 production). The experiment in a line: IL-17 production by differentiating Th17 cells in vitro (ELISA). It is filed as cell-based, mouse (C57BL/6). Particulars: Mus musculus.
Assay [2] relates to Th1 cells (IFNγ production). The experiment in a line: IFNγ production by differentiating Th1 cells in vitro (ELISA). It is filed as cell-based, mouse (C57BL/6). The note with it: Mus musculus. (An ELISA detects its analyte on a solid surface through an enzyme-linked reagent.)
Assay [3] deals with differentiating Th17 cells. The experiment in a line: Inhibition of IL-17 production by CD4+ T cells under Th17 differentiating conditions (ELISA). It is filed as cell-based, C57BL/6 mice. Particulars: for IC50 Th17 (IL-17 production): differentiating Th17 cells in vitro, 6 days of culture, average ±S.E.; for inhibitory effect on IL-17 production: within the range of concentrations assayed.

Assay [4] relates to differentiating Th1 cells. Description: Inhibition of IFNγ production during Th1 differentiation (ELISA). The note with it: differentiating Th1 cells in vitro, 6 days of culture, average ±S.E. It is filed as cell-based, C57BL/6 mice. On the procedure: For comparison studies with Th1 cells, T cells were differentiated in the same in vitro conditions, with only anti-murine IL-4 neutralizing antibody, recombinant murine IL-2 (10 ng/ml, eBioscience) and recombinant murine IL-12p70 (20 ng/ml, BD Biosciences) and CD3/CD28 stimulation. The concentration of IFN in culture supernatants was measured by ELISA (BD Biosciences). L-kynurenine, 3′-hydroxy-DL-kynurenine, 3′-hydroxyanthranilic acid, anthranilic acid and quinolinic acid (Sigma) were dissolved in RPMI medium under agitation at 1 mM concentration and sterile filtered. Tryptophan metabolites were added individually or in combination, in twofold dilutions, to the differentiating medium of Th1 or Th17 cells for the 6 days of culture.

The mark [5] stands for this setting: 144 h, Table II, differentiating Th17 cells, 6 days, average ± S.E., read-out: IC50, IL-17 production, Th17.
Where [6] appears, read: Th17 differentiating conditions, read-out: IC50, IL-17 production.
Setting [7] is: 144 h, Table II, differentiating Th1 cells, 6 days, average ± S.E., read-out: IC50, IFNγ production, Th1.

Like-named read-outs stand apart in the source and are kept apart here.

For orientation: IC50 means the concentration that gives 50% inhibition. Consider `Nc1c(O)cccc1C(=O)CC(N)C(=O)O` (racemic) [3′-Hydroxy-DL-kynurenine, 3′-hydroxy-DL-kynurenine], for which the IC50 came out at 68.1 ± 1.4 µM in assay [1] (setting [5]), 68.1 ± 1.4 µM in assay [1] (setting [6]) and 153.8 ± 1.1 µM in assay [2] (setting [7]).
For the compound `Nc1c(O)cccc1C(=O)O` [3′-Hydroxyanthranilic acid, 3′-hydroxyanthranilic acid], the half-inhibitory concentration (IC50) in assay [1] (setting [5]) was determined as 27.7 ± 3.7 µM; in assay [1] (setting [6]) it was 27.7 ± 3.7 µM; in assay [2] (setting [7]) it was 57.6 ± 1 µM; in assay [2] (read-out: IC50, IFNγ production during Th1 differentiation), 57.6 ± 1 µM.
With `Nc1ccccc1C(=O)O` [Anthranilic acid, anthranilic acid], in assay [3], the “IC50 Th17 (IL-17 production)” value is given as “No inhibition” and the “inhibitory effect on IL-17 production” value is “no inhibitory effect”. For the same compound, the “IC50 Th1 (IFNγ production)” value in assay [4] is “No inhibition”.
Regarding `Nc1ccccc1C(=O)C[C@H](N)C(=O)O` [L-Kynurenine, L-kynurenine], the half-maximal inhibitory concentration (IC50) in assay [1] (setting [5]) came out at 100.8 ± 1 µM; in assay [1] (setting [6]), 100.8 ± 1 µM; in assay [2] (setting [7]), 154.4 ± 1.2 µM.
Take `O=C(O)c1cccnc1C(=O)O` [Quinolinic acid, quinolinic acid]: in assay [3], the “IC50 Th17 (IL-17 production)” value was “No inhibition” and the “inhibitory effect on IL-17 production” value is given as “no inhibitory effect”. Besides, in assay [4] (Mus musculus, 144 h), the IC50 stood at 112 ± 1.4 µM.
